The text below walks through data of ChEMBL document CHEMBL1127481, “Adenosine deaminase inhibitors. Synthesis and biological evaluation of 4-amino-1-(2(S)-hydroxy-3(R)-nonyl)-1H-imidazo[4,5-c]pyridine (3-deaza-(+)-EHNA) and certain C1' derivatives” (J Med Chem, 1994).

What is called Ki is the dissociation constant of the complex between target and ligand, obtained from inhibition or displacement. The low end stands for a stronger hold on the target, the high end for a looser hold on the target.

For this experiment, the target named is T1, Adenosine deaminase (Bos taurus, UniProt P56658).
T1 sequence (P56658 whole entry): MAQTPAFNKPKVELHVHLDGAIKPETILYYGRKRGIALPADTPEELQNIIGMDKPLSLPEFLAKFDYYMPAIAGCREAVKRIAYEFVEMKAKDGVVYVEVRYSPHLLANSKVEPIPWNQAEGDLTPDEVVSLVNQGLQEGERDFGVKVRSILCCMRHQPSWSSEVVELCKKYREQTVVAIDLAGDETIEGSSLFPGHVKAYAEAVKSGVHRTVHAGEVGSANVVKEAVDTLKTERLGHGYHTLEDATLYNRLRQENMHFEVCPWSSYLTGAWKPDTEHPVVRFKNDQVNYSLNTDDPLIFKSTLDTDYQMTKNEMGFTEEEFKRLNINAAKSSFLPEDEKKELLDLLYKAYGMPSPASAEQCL
Kind of experiment: Compound was tested for the inhibition of adenosine deaminase from calf intestinal mucosa.
With `CCCCCC[C@H]([C@H](C)O)n1cnc2c(N)nccc21`, the affinity corresponds to a Ki of 6.2 nM.

Compound `CCCCCC[C@H]([C@@H](O)CO)n1cnc2c(N)nccc21` gave a Ki of 497 nM.

`CCCCCC[C@H]([C@@H](O)CF)n1cnc2c(N)nccc21` displayed a Ki of 4.7 nM.
